Test results published in patent US9724344B2, “Enhanced delivery of drug compositions to treat life threatening infections” (BOARD OF REGENTS, THE UNIVERSITY OF TEXAS SYSTEM, priority 2004, dated 2017).

Experiments:
[1] = Dissolution testing, United States Pharmacopeia 24 Type 2 apparatus (Examples 19-23); format: physicochemical; conditions: Avg
Method: For Examples 19-23, dissolution testing is performed on the samples using a United States Pharmacopeia 24 Type 2 apparatus (Distek Dissolution System […] with a TCS0200C heater/circulator; Crescent Scientific Pvt. Ltd.; Goregaon-East, Mumbai, India).

IL-12p70 = assay: ELISA of BAL supernatant for IL-12 elevation (inflammatory response); format: in vivo, mice; conditions: pulmonary administration, compared to excipients alone and saline
Method: FIG. 5 is a chart depicting lung concentration levels of IL-12p70 for an embodiment of the present invention. Mean IL-12p70 concentrations measured according to Example 32 via ELISA assay of the positive control, negative control and BAL supernatants of sacrificed mice. Surgery was performed on sacrificed mice to expose the pleural cavity and trachea at the throat. A small incision was cut into the trachea and a cannula consisting of a 23 gauge needle with a sheath of plastic tubing (0.037″ outside diameter (OD) and 0.025″ ID) was inserted through the incision to the base of the trachea and clamped to seal the opening. An aliquot (0.75 mL) of phosphate buffered saline was instilled through the cannula into the lungs and then removed to wash the bronchial and alveolar surfaces. This process was repeated for a total of three washes. The phosphate buffered saline containing cells was placed into centrifuge vials and centrifuged at 300 rpm (MiniSpin Plus. Eppendorf International, Hamburg, Del.). The supernatant was removed leaving the collected cells in the pellet. The supernatant from the BAL (Bronchoalveolar Lavage) was analyzed by enzyme-linked immunosorbent assay (ELISA) for IL-12 elevation (n=2 per sample tested).

airway macrophages = assay: Macrophage uptake of ITZ dosed via pulmonary administration; format: in vivo; conditions: samples taken on days 1, 3, 8 and 12
Excerpt: Cells (airway macrophages) were recovered from the lung and subjected to drug extraction and analyzed by mass spectroscopy for confirmation of ITZ presence in the macrophage.

[2] = cited from earlier work

Percent Dissolved ([1]; 2 minutes) [%]	Percent Dissolved ([1]; 5 minutes) [%]	Percent Dissolved ([1]; 10 minutes) [%]	Percent Dissolved ([1]; 15 minutes) [%]	Percent Dissolved ([1]; 20 minutes) [%]	Percent Dissolved ([1]; 25 minutes) [%]	Percent Dissolved ([1]; 30 minutes) [%]	Percent Dissolved ([1]; 60 minutes) [%]	Percent Dissolved ([1]; 120 minutes) [%]	IL-12 elevation in BAL supernatant (IL-12p70)	ITZ presence in airway macrophages (mass spectroscopy) (airway macrophages)	SMILES	aqueous solubility [2] [µg/mL]
3.1	4.8	9.1	12.7	15.5	18.2	19.7	38.9	100.0	–	–	CCC(C)n1ncn(-c2ccc(N3CCN(c4ccc(OCC5COC(Cn6cncn6)(c6ccc(Cl)cc6Cl)O5)cc4)CC3)cc2)c1=O (stereo not drawn) [Comparative Example 25]	–
–	–	–	–	–	–	–	–	–	does not result in IL-12 elevation	all showed the presence of ITZ	CCC(C)n1ncn(-c2ccc(N3CCN(c4ccc(OCC5COC(Cn6cncn6)(c6ccc(Cl)cc6Cl)O5)cc4)CC3)cc2)c1=O (stereo not drawn) [ITZ, itraconazole]	< 1
